Entries after “also recorded” stand apart in the source; their conditions may differ.
Legend:
LexPR transactivator [1] = biological target: T1, LexPR transactivator (Homo sapiens, UniProt P06401); experiment: Time required to switch off EGFP reporter expression after mifepristone withdrawal; type: in vivo, zebrafish; set-up: key to Reporter expression, RU486 incubation / Reporter expression after RU486 withdrawal / Reporter expression, continuous induction (time of RU486 incubation): +: Fluorescence signal is similar to the control.; ±: Fluorescence signal is obviously weaker that in control.; −: No EGFP fluorescence (except autofluorescence)observed using the fluorescent stereomicroscope
T1 construct: expressed in transfected cells; host or cells: germline-transgenic zebrafish (Danio rerio) carrying the Ds transposon driver cassette pDs(krt8:LPR-LOP:G4) or derivatives
T1 sequence (P06401 640-914): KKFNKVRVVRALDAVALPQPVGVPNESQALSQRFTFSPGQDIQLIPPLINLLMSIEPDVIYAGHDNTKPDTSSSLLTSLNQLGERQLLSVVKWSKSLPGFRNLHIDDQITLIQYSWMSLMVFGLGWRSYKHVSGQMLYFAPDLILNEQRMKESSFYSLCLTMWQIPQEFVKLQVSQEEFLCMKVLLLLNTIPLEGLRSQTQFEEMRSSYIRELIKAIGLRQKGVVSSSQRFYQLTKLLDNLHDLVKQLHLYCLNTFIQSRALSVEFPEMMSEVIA
From the text: To avoid confusion, the corresponding developmental times are indicated. A Nikon SMZ1600 fluorescent stereomicroscope was used for rough estimation of the EGFP fluorescence.

zebrafish development = experiment: Side effects on development of LexPR transgenic fish upon induction; type: in vivo
From the text: FIG. 13b: Control wild type fish. FIG. 13c: Transgenic F2 embryos harboring the LexPR driver-reporter cassette described in this manuscript.

LexPR transactivator [2] = biological target: T1, LexPR transactivator; experiment: RT-PCR detection of EGFP transcript after mifepristone withdrawal; type: in vivo, zebrafish; conditions: 5 days after withdrawal; 12 hours induction with 1 μM
LexPR transactivator [3] = biological target: T1, LexPR transactivator; experiment: Rate of transcription induction, whole mount in situ hybridization for EGFP transcript; type: in vivo, zebrafish; conditions: 1 μM
Experimental: RNA in situ hybridization: Whole mount in situ hybridization using antisense RNA probes for full length LexPR transactivator and EGFP labeled with digoxigenin (Roche, USA) was carried out as previously described (Oxtoby and Jowett, 1993). After in situ hybridization stained embryos were mounted in PBS-glycerol and viewed using Nikon SMZ1600 stereomicroscope. Images were taken with Nikon DXM1200F digital camera with the Nikon ACT-1 software and processed using Adobe Photoshop 7.0.1 software.
To accurately estimate the rate of induction, it is more appropriate to measure the transcript rather than the protein product, especially if the gene of interest contains sequences for RNAi, microRNA or other non-coding RNAs.

LexPR transactivator [4] = biological target: T1, LexPR transactivator; experiment: Trans-activation of mCherry effector in effector and double transgenic fish; type: in vivo, zebrafish; conditions: 1 μM
Experimental: Two independent driver lines with different LexPR transactivator expression patterns (shown on FIGS. 4A, 4D) were crossed with two independent transgenic effector lines, which carried mCherry gene under control of the LexOP. […] Images were captured at 96 hours post fertilization.
This effector cassette harbors a gene for red fluorescent protein “mCherry” under the control of the LexOP sequence (Example 3).

LexPR transactivator [5] = biological target: T1, LexPR transactivator; experiment: Control of maternal EGFP expression by treating transgenic females; type: in vivo, zebrafish; conditions: 1 μM for 12 hours before crossing
LexPR transactivator [6] = biological target: T1, LexPR transactivator; experiment: Inducible expression of EGFP-KrasV12 in transgenic zebrafish; type: in vivo; conditions: 10 μM at 10 hpf onwards
From the text: Transgenic zebrafish line harboring insertion of the binary driver construct Ds(krt8:LPR-LOP:EGFP-Kras^V12) containing EGFP-Kras^V12 under control of the LexOP, F2 (FIG. 12a-12e, FIG. 12g). FIG. 12a: 24 hpf, no induction. […] FIG. 12f: Transgenic fish harboring the unmodified driver-reporter construct pDs(krt8:LPR-LOP:G4) containing EGFP gene under control of the LexOP.

Reporter expression after RU486 withdrawal (LexPR transactivator [1]; 100 nM, 1 hour RU486 incubation, 96 h after withdrawal, 133hpf): − | Reporter expression after RU486 withdrawal (LexPR transactivator [1]; 100 nM, 1 hour RU486 incubation, 120 h after withdrawal, 157hpf): − | Reporter expression after RU486 withdrawal (LexPR transactivator [1]; 100 nM, 1 hour RU486 incubation, 144 h after withdrawal, 181hpf): − | Minimal time after RU486 withdrawal to turn off the reporter expression (LexPR transactivator [1]; 100 nM, 1 hour induction): 2 days | Reporter expression, RU486 incubation (LexPR transactivator [1]; 100 nM, 12 hours RU486 incubation - withdrawal, at 12 h incubation, 48hpf): + | Reporter expression after RU486 withdrawal (LexPR transactivator [1]; 100 nM, 12 hours RU486 incubation, 12 h after withdrawal, 60hpf): + | Reporter expression after RU486 withdrawal (LexPR transactivator [1]; 100 nM, 12 hours RU486 incubation, 24 h after withdrawal, 72hpf): ± | Reporter expression after RU486 withdrawal (LexPR transactivator [1]; 100 nM, 12 hours RU486 incubation, 48 h after withdrawal, 96hpf): ± | Reporter expression after RU486 withdrawal (LexPR transactivator [1]; 100 nM, 12 hours RU486 incubation, 72 h after withdrawal, 120hpf): − | Reporter expression after RU486 withdrawal (LexPR transactivator [1]; 100 nM, 12 hours RU486 incubation, 96 h after withdrawal, 144hpf): − | Reporter expression after RU486 withdrawal (LexPR transactivator [1]; 100 nM, 12 hours RU486 incubation, 120 h after withdrawal, 168hpf): − | Reporter expression after RU486 withdrawal (LexPR transactivator [1]; 100 nM, 12 hours RU486 incubation, 144 h after withdrawal, 192hpf): − | Minimal time after RU486 withdrawal to turn off the reporter expression (LexPR transactivator [1]; 100 nM, 12 hours induction): 3 days | Reporter expression, continuous induction (time of RU486 incubation) (LexPR transactivator [1]; 100 nM, 24-156 h incubation, 60-192 hpf): + | Reporter expression, continuous induction (time of RU486 incubation) (LexPR transactivator [1]; 100 nM, 1 h incubation): − | Reporter expression, continuous induction (time of RU486 incubation) (LexPR transactivator [1]; 100 nM, 12 h incubation): + | Reporter expression, continuous induction (time of RU486 incubation) (LexPR transactivator [1]; 100 nM, 13 h incubation, 49hpf): + | Reporter expression, continuous induction (time of RU486 incubation) (LexPR transactivator [1]; 100 nM, 24 h incubation, 60hpf): + | Reporter expression, RU486 incubation (LexPR transactivator [1]; 1 μM, 1 hour RU486 incubation - withdrawal, at 1 h incubation, 37hpf): − | Reporter expression after RU486 withdrawal (LexPR transactivator [1]; 1 μM, 1 hour RU486 incubation, 12 h after withdrawal, 49hpf): + | Reporter expression after RU486 withdrawal (LexPR transactivator [1]; 1 μM, 1 hour RU486 incubation, 24 h after withdrawal, 61hpf): + | Reporter expression after RU486 withdrawal (LexPR transactivator [1]; 1 μM, 1 hour RU486 incubation, 48 h after withdrawal, 85hpf): + | Reporter expression after RU486 withdrawal (LexPR transactivator [1]; 1 μM, 1 hour RU486 incubation, 72 h after withdrawal, 109hpf): ± | Reporter expression after RU486 withdrawal (LexPR transactivator [1]; 1 μM, 1 hour RU486 incubation, 96 h after withdrawal, 133hpf): ± | Reporter expression after RU486 withdrawal (LexPR transactivator [1]; 1 μM, 1 hour RU486 incubation, 120 h after withdrawal, 157hpf): − | Reporter expression after RU486 withdrawal (LexPR transactivator [1]; 1 μM, 1 hour RU486 incubation, 144 h after withdrawal, 181hpf): − | Minimal time after RU486 withdrawal to turn off the reporter expression (LexPR transactivator [1]; 1 μM, 1 hour induction): 5 days | Reporter expression, RU486 incubation (LexPR transactivator [1]; 1 μM, 12 hours RU486 incubation - withdrawal, at 12 h incubation, 48hpf): + | Reporter expression after RU486 withdrawal (LexPR transactivator [1]; 1 μM, 12 hours RU486 incubation, 12 h after withdrawal, 60hpf): + | Reporter expression after RU486 withdrawal (LexPR transactivator [1]; 1 μM, 12 hours RU486 incubation, 24 h after withdrawal, 72hpf): + | Reporter expression after RU486 withdrawal (LexPR transactivator [1]; 1 μM, 12 hours RU486 incubation, 48 h after withdrawal, 96hpf): + | Reporter expression after RU486 withdrawal (LexPR transactivator [1]; 1 μM, 12 hours RU486 incubation, 72 h after withdrawal, 120hpf): ± | Reporter expression after RU486 withdrawal (LexPR transactivator [1]; 1 μM, 12 hours RU486 incubation, 96 h after withdrawal, 144hpf): ± | Reporter expression after RU486 withdrawal (LexPR transactivator [1]; 1 μM, 12 hours RU486 incubation, 120 h after withdrawal, 168hpf): ± | Reporter expression after RU486 withdrawal (LexPR transactivator [1]; 1 μM, 12 hours RU486 incubation, 144 h after withdrawal, 192hpf): − | Minimal time after RU486 withdrawal to turn off the reporter expression (LexPR transactivator [1]; 1 μM, 12 hours induction): 6 days | Reporter expression, continuous induction (time of RU486 incubation) (LexPR transactivator [1]; 1 μM, 24-156 h incubation, 60-192 hpf): + | Reporter expression, continuous induction (time of RU486 incubation) (LexPR transactivator [1]; 1 μM, 1 h incubation): − | Reporter expression, continuous induction (time of RU486 incubation) (LexPR transactivator [1]; 1 μM, 12 h incubation): + | Reporter expression, continuous induction (time of RU486 incubation) (LexPR transactivator [1]; 1 μM, 13 h incubation, 49hpf): + | Reporter expression, continuous induction (time of RU486 incubation) (LexPR transactivator [1]; 1 μM, 24 h incubation, 60hpf): + | Duration of EGFP fluorescence in mifepristone-free water (LexPR transactivator [1]; following 12 hours treatment with 1 μM): 5 days | EGFP transcript by RT-PCR after withdrawal (LexPR transactivator [2]): can be detected | Time of induction to maximum transcript level (LexPR transactivator [3]): approximately nine | Effect of induced EGFP-KrasV12 expression on F2 embryos (LexPR transactivator [6]): embryo development was severely affected
SMILES: CC#C[C@]1(O)CC[C@H]2[C@@H]3CCC4=CC(=O)CCC4=C3[C@@H](c3ccc(N(C)C)cc3)C[C@@]21C [mifepristone]
Effect on embryo development and cell morphology, LexPR driver-reporter F2 embryos (zebrafish development; 1 μM in the growth water 10 hpf onwards): does not affect embryo development and morphology of the EGFP-positive cells | Side effects on zebrafish development (zebrafish development; 10 μM at 1-cell stage, LexPR system): did not observe obvious side effects | Background mCherry fluorescence in effector lines (effector cassette only) (LexPR transactivator [4]): No background mCherry fluorescence was detected; also recorded: not detected | Reporter expression in double transgenic embryos (driver and effector) (LexPR transactivator [4]): both reporters (EGFP/driver and mCherry/effector) were co-expressed in the same cells | Maternal EGFP expression in offspring of treated transgenic F2 females (LexPR transactivator [5]): produced GFP-positive eggs; also recorded: All the F3 embryos showed maternal EGFP expression

From patent US8852928B2, “LexA-based chemical-inducible gene expression system for use in transgenic animals” (Temasek Life Sciences Laboratory Limited, priority 2007, dated 2014)
